Assays:
[1] = system: atherosclerotic plaque in Ldlr−/− BMT mice; experiment: Aortic root plaque size in high fat/high cholesterol diet-fed competitive-BMT Ldlr−/− mice; format: in vivo; conditions: continuous infusion 5 mg/kg/day via subcutaneous osmotic pumps
Description: Aortic root plaque size in high fat/high cholesterol diet-fed 10% KO-BMT mice and 10% WT-BMT. […] Representative images of hematoxylin/eosin-stained sections are shown; plaques are delineated by discontinuous lines (scale bar: 100 μm). Statistical significance was evaluated by 2-way ANOVA with Tukey multiple comparison test (*p<0.05, […]).
Lethally irradiated Ldlr−/− recipients were transplanted with suspensions of BM cells containing 10% CD45.2+ Tet2−/− cells and 90% CD45.1+ Tet2+/+ cells (10% KO-BMT mice), or 10% CD45.2+ Tet2+/+ cells and 90% CD45.1+ Tet2+/+ cells (10% WT-BMT mice) (Fig. S1). BM cells were isolated from femurs and tibias of donor mice after euthanasia. Donor CD45.2+ cells were obtained from Tet2+/+ or −/− littermates; donor CD45.1+ cells were obtained from Pep Boy mice. Recipient Ldlr−/− mice were irradiated in a pie cage (Braintree Scientific) to limit mobility and ensure equal dose of irradiation and were exposed to two radiation doses of 550 rad three hours apart using an X-RAD 320 Biological Irradiator. After the second irradiation, each recipient mouse was injected with 10^7 BM cells i.v. Sterilized caging, food and water were provided during the first 14 days post-transplant and water was supplemented with antibiotics (Sulfatrim). […]
Mice were euthanized and aortas were removed after in situ perfusion with phosphate-buffered saline (PBS) injected through the left ventricle of the heart. […] All histological sections comprising the aortic root as determined by the location of the aortic valve leaflets were cut at a thickness of 6 μm. An operator who was blinded to genotype quantified plaque size in aortic root sections by computer-assisted morphometric analysis of microscopy images acquired on a KEYENCE BZ-9000 microscope. For each mouse, atherosclerosis plaque size in aortic root cross-sections was calculated as the average of 5 independent sections separated by ˜18 μm.

[2] = system: heart failure by pressure overload (TAC) in mice; experiment: Pressure overload (TAC) heart failure in BMT mice; format: in vivo
Source text: 22A. Scheme of the experimental study. Mice underwent partial (10%) bone marrow reconstitution with Tet2-deficient cells or WT cells following lethal irradiation. After 8 weeks of recovery, mice underwent permanent TAC surgery to produce pressure overload on the heart. 22B. […] 22C. […] 22D. […] LVPWTd=left ventricle posterior wall thickness at diastole, FS=fractional shortening. 22E.
(§1) Heart failure was induced in C57/B16 mice by pressure overload, achieved by transverse aortic constriction (TAC), or by chronic ischemia, induced by the permanent ligation of the left anterior descending (LAD) artery (FIGS. 19, 20). In both models, Tet2-deficient hematopoietic cells were used to partially reconstitute the bone marrow of lethally irradiated mice, leading to their clonal expansion. Alternatively, Tet2 was specifically ablated in myeloid cells using Cre recombinase expressed from the LysM promoter. In mice, undergoing LAD ligation, Tet2-deficiency led to worsened cardiac remodeling and function regardless of the means of Tet2 ablation. In mice undergoing TAC, Tet2-deficiency led to greater hypertrophy and systolic dysfunction regardless of the means of Tet2 ablation.

[3] = system: heart failure by chronic ischemia (LAD ligation) in mice; experiment: Post-infarction remodeling after permanent LAD ligation in BMT mice; format: in vivo
Source text: 21A. Scheme of the experimental study. Mice underwent partial (10%) bone marrow reconstitution with Tet2-deficient cells or WT cells following lethal irradiation. After 8 weeks of recovery, mice underwent permanent LAD ligation. PBS or MCC-950 infusion by osmotic pump was initiated 1 week after LAD ligation for 4 weeks. 21B. […] 21C.
as §1

[4] = system: IL-6 expression; experiment: qRT-PCR of IL-6 expression in LPS/IFNγ-treated peritoneal macrophages; format: cell-based, mouse; conditions: 8 hours 10 ng/mL LPS and 2 ng/ml IFNγ; 0.5 μM TSA
Description: (§2) 14A. qRT-PCR analysis of IL-1β expression in peritoneal macrophages isolated from Tet2−/− or +/+ mice (n=3 mice/genotype) and treated for 8 hours with 10 ng/mL LPS and 2 ng/ml IFNγ in the absence or presence of 0.5 μM Trichostatin A (TSA). 14B. ChIP analysis of H3 acetylation in the IL-1β promoter of macrophages isolated from Tet2−/− or +/+ mice (n=6/genotype) after 10 hours of LPS/IFNγ treatment. 14C. qRT-PCR analysis of IL-6 expression in peritoneal macrophages isolated from Tet2−/−/ mice or +/+ controls (n=3 mice/genotype) and treated for 8 hours with 10 ng/mL LPS and 2 ng/ml IFNγ in the absence or presence of 0.5 μM TSA. 14D. […]
(§3) Thioglycollate-elicited macrophages were obtained from the peritoneal cavity of mice 4 days after intraperitoneal injection of 1 ml of aged 4% Brewer's thioglycollate broth (BD Difco). […] Cell cycle progression and apoptosis of cultured macrophages was evaluated by flow cytometry analysis of DNA content. […] For analysis of apoptosis induced by treatment with 7-ketocholesterol (Sigma), hypodiploid (SubG1) cells were quantified using with FLOWJO Software. Uptake of fluorescent dil-conjugated oxidized LDL (Alfa Aesar) was evaluated by flow cytometry analysis. […]
(§4) Total RNA from tissues and cultured cells was isolated using QIAZOL reagent and RNEASY kits (QIAGEN). […] Results were analyzed with the ΔΔCt method. […]

[5] = system: TNF expression; experiment: qRT-PCR of TNF expression in LPS/IFNγ-treated peritoneal macrophages; format: cell-based, mouse; conditions: HDAC inhibition with TSA in macrophages
Source text: Although many details of its role in regulating chromatin architecture remain unknown, Tet2 has emerged as a multifaceted epigenetic regulator that is able to facilitate both transcription activation and repression depending on the molecular and cellular context. Given that Tet2 loss-of-function is associated with increased IL-1β gene expression, experiments were focused on potential mechanisms of Tet2-mediated transcriptional repression in macrophages.
as §3, with “Difco). Macrophages were allowed to adhere for 4 hours and cultured in RPMI medium supplemented with antibiotics and 10% FBS (PERFORMANCE PLUS FBS, Gibco).” for “Difco).”
as §4

[6] = system: IL-1β expression; experiment: qRT-PCR of IL-1β expression in LPS/IFNγ-treated peritoneal macrophages; format: cell-based, mouse; conditions: 8 hours 10 ng/mL LPS and 2 ng/ml IFNγ; 0.5 μM TSA
Description: as §2, §3, §4

[7] = mice reconstituted with Tet2-knockout bone marrow, after pressure overload

CC(C)(O)c1coc(S(=O)(=O)NC(=O)Nc2c3c(cc4c2CCC4)CCC3)c1 [MCC950]
decrease of atherosclerotic plaque size ([1]; 10% KO-BMT mice): ~50%
reduction of atherosclerotic plaque size ([1]; 10% WT-BMT controls, nonstatistically significant): 20%
difference in aortic plaque size between chimeric (10% KO-BMT) and nonchimeric control mice [1]: eliminated
development of heart failure ([2]; TAC model (FIG. 22)): protected against the development of heart failure
difference in cardiac fibrosis between Tet2-deficient and WT conditions ([2]; after pressure overload): eliminates the difference in this parameter
difference in myocyte CSA between Tet2-deficient and WT conditions ([2]; after pressure overload): eliminates the difference in this parameters
differences in HW and LW between Tet2-deficient and WT conditions ([2]; after pressure overload): eliminates the differences in these parameters
differences in echocardiographic parameters between Tet2-deficient and WT conditions ([2]; after pressure overload): eliminates the differences in the echocardiographic parameters
heart weight (HW) and wet lung weight (LW) adjusted by tibia length (TL) ([2]; after pressure overload, both strains of mice): ameliorates the increase of cardiac and lung mass
myocyte cross-sectional area (CSA) ([2]; after pressure overload, wild type and hematopoietic Tet2-KO mice): inhibits hypertrophy
cardiac fibrosis (Picro sirius staining) [2, 7]: can be reversed
deterioration of cardiac function (echocardiographic parameters, LVPWTd, FS) [2, 7]: can be reversed
differences in cardiac parameters between Tet2-deficient and WT conditions ([3]; 5 week time point post-LAD ligation): eliminates the differences in cardiac parameters
development of heart failure ([3]; LAD ligation model (FIG. 21)): protected against the development of heart failure
cardiac remodeling, echocardiographic ejection fraction (EF) ([3]; Tet2-KO and wild-type bone marrow, osmotic pump infusion from 1 week after LAD ligation for 4 weeks): protects against adverse cardiac remodeling
differences in cell size between Tet2-deficient and WT conditions ([3]; after LAD ligation): eliminates the differences in cell size
cardiac myocyte hypertrophy after LAD ligation ([3]; mice reconstituted with Tet2-KO and wild-type bone marrow): inhibits the increase in cardiac myocyte hypertrophy

CC(/C=C/C(=O)NO)=C\[C@@H](C)C(=O)c1ccc(N(C)C)cc1 [Trichostatin A]
IL-6 expression differences between genotypes [4]: did not affect differences between genotypes
IL-6 transcript expression (qRT-PCR) [4]: reduced transcript expression
TNF transcript expression [5]: reduced transcript expression
IL-1β expression (qRT-PCR) [6]: increased IL-1β expression
IL-1β expression differences between Tet2-deficient and WT genotypes [6]: abolished expression differences

Reference: patent US10041044B2, “Age-associated clonal hematopoiesis accelerates cardio-metabolic disease development” (TRUSTEES OF BOSTON UNIVERSITY, priority 2016, dated 2018)
